Patent publication CN103285022A, “用于制备治疗多囊卵巢综合征的中药单体组合物及其制备方法” (Second Military Medical University SMMU, priority 2013, dated 2013)

Experiments:
kidney [肾脏] = experiment: Kidney histopathology / renal safety; assay type: in vivo, rat; conditions: conclusion; given together (27/200/100 mg/kg), 28 days
liver [肝脏] = assay type: in vivo, rat; conditions: for hepatotoxicity: conclusion, given together (27/200/100 mg/kg), 28 days
AR mRNA = experiment: RT-PCR of ovarian tissue, AR mRNA; assay type: in vivo, rat; conditions: vs model group, 28 days gavage
[1] = system: polycystic ovary syndrome rat model [多囊卵巢综合征动物模型]; experiment: Ovarian wet weight and ovarian coefficient; assay type: in vivo; conditions: 28 days gavage; ovarian wet weight significantly lower than model group
CYP17 mRNA = experiment: RT-PCR of ovarian tissue, CYP17 mRNA; assay type: in vivo, rat; conditions: vs model group, 28 days gavage
3β-HSD mRNA = experiment: RT-PCR of ovarian tissue, 3β-HSD mRNA; assay type: in vivo, rat; conditions: vs model group, 28 days gavage
[2] = system: polycystic ovary syndrome rat model [多囊卵巢综合征大鼠模型]; experiment: Oestrous cycle by vaginal exfoliative cytology, DHEA-induced PCOS rats; assay type: in vivo; conditions: oral gavage 28 days, then 10 days of vaginal cytology, combination 27/200/100 mg/kg, spironolactone 20 mg/kg

Structure (SMILES) | nephrotoxicity (kidney [肾脏]) | hepatotoxicity (liver [肝脏]) | AR mRNA expression in ovarian tissue (AR mRNA) | increase of ovarian volume and wet weight in model rats, effect of treatment [1] | CYP17 mRNA expression in ovarian tissue (CYP17 mRNA) | 3β-HSD mRNA expression in ovarian tissue (3β-HSD mRNA) | liver histopathology (liver [肝脏]; rat, in vivo) | sexual cycle recovery rate [2] [%]
O=c1c(O)c(-c2ccc(O)c(O)c2)oc2cc(O)cc(O)c12 [槲皮素, 槲皮素(Quercetin)] | 均不具有肝肾毒性 | 均不具有肝肾毒性 |  |  |  |  |  | 
CC(=O)S[C@@H]1CC2=CC(=O)CC[C@]2(C)[C@H]2CC[C@@]3(C)[C@@H](CC[C@@]34CCC(=O)O4)[C@H]12 [螺内酯, 螺内酯(Spironolactone)] |  |  | 显著降低 | 均可以逆转这种情况 | 显著降低 | 显著降低 | 个别出现肝细胞脂肪样变性,胞浆透明度增加,细胞胞浆不清,部分细胞核崩解,肝板破坏,汇管区增粗 | 80
C[C@H]1COC2=C1C(=O)C(=O)c1c2ccc2c1CCCC2(C)C [隐丹参酮, 隐丹参酮(Cryptotanshinone)] | 均不具有肝肾毒性 | 均不具有肝肾毒性 |  |  |  |  |  | 
O=C(O)[C@H]1O[C@@H](Oc2cc3oc(-c4ccccc4)cc(=O)c3c(O)c2O)[C@H](O)[C@@H](O)[C@@H]1O [黄芩苷, 黄芩苷(Baicalin)] | 均不具有肝肾毒性 | 均不具有肝肾毒性 |  |  |  |  |  | 
